This is an account of results in patent US20170131257A1, “SYSTEMS AND METHODS OF REMOVING AND MANAGING HEAVY METALS” (priority 2007, published 2017).

Experiment [1] is described as follows: Mercury binding test of substrates in a salt solution.
Experiment [2] in a line: Chelation between mercury and phytic acid at different pH levels. The note with it: pH levels including acidic levels commonly found in the stomach. The text has this:
An amount of food 72 that may contain a concentration of the heavy metal (“contaminated food”) is consumed with an amount of the ligand 74, or, near the time of consuming the ligand 74. In one implementation, the ligand 74 is phytic acid. The ligand 74 is preferably in an amount suitable for at least substantially bonding to the mercury contained within the food 72. The ligand 74 may be prepared in the form of a marinade or sauce directly applied to the food 72, or may be a separate supplement such as a pill, alternate food source, or the like. Ingestion 76 may provide mixing of the food 72 and ligand 74. When the food 72 and ligand 74 are mixed, then chelation 78 causes the mercury or other heavy metal in the food 72 to bond to the ligand 74, thereby forming a chelate 82. The chelate 82 causes food 72 containing some mercury to become a clean food 80, substantially free of the mercury. The clean food 80 proceeds to normal digestion 84, while the chelate 82 proceeds to safe egestion 86 from the body. Thus, the mercury contained within food 72 is passed through the living organism without digestion 84.

The test system of the next experiment is Zebra Fish. It counts as in vivo. On the procedure:
Following EPA Method 7473, a total of 44 Zebra fish were randomized into four one gallon tanks and fed an experimental or control diet for 6 days. On the seventh day the fish were not fed so that any food being digested would have been absorbed or eliminated. The fish were fed 1.0 gram of food twice a day the first day. On the second day the fish were fed 0.5 grams twice a day. On days 3-6 the fish were fed 0.5 gram once a day.
The control and experimental feed was prepared using:
9.8 g. Frozen Thawed Brine Shrimp
The corn starch and water were boiled for 2 minutes then mixed with the remaining ingredients. The basic food was divided into four groups. The study groups consisted of: the control (Group C), an experimental group in which phytic acid di-sodium salt was added to the feed at 5% by […] (Group A), an experimental group in which 15 μg mercuric iodide salt per gram of food was added (Group B), and lastly Group D in which fish were fed the above stated amounts of mercuric iodide salt and phytic acid di-sodium salt.
The analysis was conducted by a contracted company, Northwest Pacific Labs. Samples were stratified by treatment and randomly sampled. A test of atomic absorption was used to determine absorbed mercury, after calibrating the instrument.

Turning to `O=P(O)(O)O[C@H]1[C@H](OP(=O)(O)O)[C@@H](OP(=O)(O)O)[C@H](OP(=O)(O)O)[C@@H](OP(=O)(O)O)[C@H]1OP(=O)(O)O` [Phytic Acid, phytic acid], in experiment [1], the “binding of mercury by the substrate” value was “would bind mercury”. The “chelation with mercury across pH” value in experiment [2] is given as “can occur at a wide range of pH levels”. For the same compound, the “reduction of mercury absorption” value in the experiment with Zebra Fish (Group D (phytic acid plus mercury) vs mercury alone, baselines of mercury controlled for, seven day time frame) is recorded as 50%. In addition, the “Total Hg Wet Weight, Mean” value with Zebra Fish (Group D: phytic acid 5% per wt. and 15 micrograms HgI2 per gram food, fed 6 days, N=4) was “.1047”. The “absorbed mercury, group D vs mercury-alone group B” value in the experiment on Zebra Fish (weighted sample, Mann-Whitney test, Sig=0.000) is “less absorbed mercury”.
